Results reported in patent US7244741B2, “Fredericamycin derivatives as medicaments for treating tumours” (Biofrontera Discovery GmbH, priority 2002, dated 2007).

Tested on: 12 cancer cell lines: LCL (H460/lung), MACL (MCF7, breast), LXFL (529L, lung), LXFA (629L, lung), MEXF (462NL, melanoma), MEXF (514L, melanoma), MAXF (401NL …)
Assay: Biological activity against 12 cancer cell lines (IC70 averaged over all cell lines)
Assay type: cell-based
Conditions: mean over 12 cancer cell lines; 5 test concentrations
Protocol: Biological Activity Against 12 Cancer Cell Lines: LCL (H460/lung), MACL (MCF7, breast), LXFL ([…], lung), LXFA ([…], lung), MEXF (462NL, melanoma), MEXF ([…], melanoma), MAXF (401NL, breast), RXF ([…], renal), RXF ([…], renal), UXF ([…], uterus), […]1). Efficacy (IC70), averaged over all cell lines in μg/ml with 5 test concentrations.

| Compound | Efficacy (IC70), averaged over all cell lines |
| --- | --- |
| C/C=C/C=C/c1cc2cc3c(c(O)c2c(=O)[nH]1)C1(CC3)C(=O)c2c(O)c3c(c(O)c2C1=O)C(=O)C(OC)=CC3=O (stereo not shown) [Fredericamycin] | 0.2790 µg/mL |
| N.N.[Cl][Pt][Cl] [Cisplatin] | 37.1020 µg/mL |
| C/C=C/C=C/c1cc2cc3c(c(O)c2c(=O)[nH]1)[C@@]1(C(=O)c2c(O)c4c(c(O)c2C1=O)C(=O)C(OC)=CC4=O)C(SCCO)C3 (stereo partly drawn) [Example 3, (8S)-4′,9,9′-trihydroxy-6′-methoxy-7(2-hydroxyethylmercapto)-3-[(1E,3E)-penta-1,3-dienyl]-6,7-dihydrospiro[cyclopenta[g]isoquinoline-8,2′-cyclopenta[b]-napthalene]-1,1′-3′,5′,8′(2H)-pentone] | 0.1340 µg/mL |
| COc1cccc2c1C(=O)c1c(O)c3c(c(O)c1C2=O)C[C@@](O)(C(=O)CO)C[C@@H]3O[C@H]1C[C@H](N)[C@H](O)[C@H](C)O1 [Adriamycin] | 0.0210 µg/mL |
